Values quoted from earlier work, collected in PubChem BioAssay AID1259409 (Chemical Carcinogenesis Research Information System (CCRIS), 2018).

Test system: rodent chemically induced tumor inhibition, incidence and multiplicity
Assay: CCRIS tumor inhibitor studies
Conditions: Route [Inhibitor]: ORAL, Species: RAT

Cn1c(=O)c2c(ncn2C)n(C)c1=O
tumour outcome (control, treated, inhibition, significance) (Carcinogen: 1,2-DIMETHYLHYDRAZINE, 540-73-8, Dose [Inhibitor]: 0, 600 MG/L IN DRINKING WATER FOR DURATION OF STUDY BEGINNING 7 D PRIOR TO CARCINOGEN TREATMENT (STUDY DURATION: 8 MO), Strain/Sex: BD6/MALE, Target Tissue: Type of Lesion: INTESTINE: TUMOR, Dose [Carcinogen]: 20 MG/KG BW 1/WK FOR 20 WK, Promoter: NONE USED): 100%, 100%, 0%, not significant | tumour outcome (control, treated, inhibition, significance) (Carcinogen: 2-ACETYLAMINOFLUORENE, 53-96-3, Dose [Inhibitor]: 0, 0.1% IN DRINKING WATER FOR FIRST 12 WK (STUDY DURATION: 30 WK), Strain/Sex: ACI/MALE, Target Tissue: Type of Lesion: LIVER: HEPATOCELLULAR ADENOMA, Dose [Carcinogen]: 0.02% IN DIET FOR FIRST 12 WK): 100%, 78%, 22%, not significant | tumour outcome (control, treated, inhibition, significance) (Carcinogen: 2-ACETYLAMINOFLUORENE, 53-96-3, Dose [Inhibitor]: 0, 0.1% IN DRINKING WATER FOR FIRST 12 WK (STUDY DURATION: 30 WK), Strain/Sex: ACI/MALE, Target Tissue: Type of Lesion: LIVER: HEPATOCELLULAR CARCINOMA, Dose [Carcinogen]: 0.02% IN DIET FOR FIRST 12 WK): 44%, 22%, 50%, not significant | tumour outcome (control, treated, inhibition, significance) (Carcinogen: 2-ACETYLAMINOFLUORENE, 53-96-3, Dose [Inhibitor]: 0, 0.1% IN DRINKING WATER FOR FIRST 12 WK (STUDY DURATION: 30 WK), Strain/Sex: ACI/MALE, Target Tissue: Type of Lesion: SMALL INTESTINE: ADENOCARCINOMA, Dose [Carcinogen]: 0.02% IN DIET FOR FIRST 12 WK): 9%, 17%, -89%, not significant | tumour outcome (control, treated, inhibition, significance) (Carcinogen: 2-ACETYLAMINOFLUORENE, 53-96-3, Dose [Inhibitor]: 0, 0.15% IN DRINKING WATER FOR FIRST 12 WK (STUDY DURATION: 30 WK), Strain/Sex: ACI/MALE, Target Tissue: Type of Lesion: LIVER: HEPATOCELLULAR ADENOMA, Dose [Carcinogen]: 0.02% IN DIET FOR FIRST 12 WK): 100%, 63%, 37%, p<0.01 | tumour outcome (control, treated, inhibition, significance) (Carcinogen: 2-ACETYLAMINOFLUORENE, 53-96-3, Dose [Inhibitor]: 0, 0.15% IN DRINKING WATER FOR FIRST 12 WK (STUDY DURATION: 30 WK), Strain/Sex: ACI/MALE, Target Tissue: Type of Lesion: LIVER: HEPATOCELLULAR CARCINOMA, Dose [Carcinogen]: 0.02% IN DIET FOR FIRST 12 WK): 44%, 8%, 82%, p<0.02 | tumour outcome (control, treated, inhibition, significance) (Carcinogen: 2-ACETYLAMINOFLUORENE, 53-96-3, Dose [Inhibitor]: 0, 0.15% IN DRINKING WATER FOR FIRST 12 WK (STUDY DURATION: 30 WK), Strain/Sex: ACI/MALE, Target Tissue: Type of Lesion: SMALL INTESTINE: ADENOCARCINOMA, Dose [Carcinogen]: 0.02% IN DIET FOR FIRST 12 WK): 9%, 13%, -44%, not significant | tumour outcome (control, treated, inhibition, significance) (Carcinogen: 2-ACETYLAMINOFLUORENE, 53-96-3, Dose [Inhibitor]: 0, 0.2% IN DRINKING WATER FOR FIRST 12 WK (STUDY DURATION: 30 WK), Strain/Sex: ACI/MALE, Target Tissue: Type of Lesion: LIVER: HEPATOCELLULAR ADENOMA, Dose [Carcinogen]: 0.02% IN DIET FOR FIRST 12 WK): 100%, 35%, 65%, p<0.001 | tumour outcome (control, treated, inhibition, significance) (Carcinogen: 2-ACETYLAMINOFLUORENE, 53-96-3, Dose [Inhibitor]: 0, 0.2% IN DRINKING WATER FOR FIRST 12 WK (STUDY DURATION: 30 WK), Strain/Sex: ACI/MALE, Target Tissue: Type of Lesion: LIVER: HEPATOCELLULAR CARCINOMA, Dose [Carcinogen]: 0.02% IN DIET FOR FIRST 12 WK): 44%, 5%, 89%, p<0.02 | tumour outcome (control, treated, inhibition, significance) (Carcinogen: 2-ACETYLAMINOFLUORENE, 53-96-3, Dose [Inhibitor]: 0, 0.2% IN DRINKING WATER FOR FIRST 12 WK (STUDY DURATION: 30 WK), Strain/Sex: ACI/MALE, Target Tissue: Type of Lesion: SMALL INTESTINE: ADENOCARCINOMA, Dose [Carcinogen]: 0.02% IN DIET FOR FIRST 12 WK): 9%, 10%, -11%, not significant | tumour outcome (control, treated, inhibition, significance) (Carcinogen: 2-AMINO-1-METHYL-6-PHENYL-1H-IMIDAZO[4,5-B]PYRID INE, 105650-23-5, Dose [Inhibitor]: 0, 0.1% IN DRINKING WATER FOR 52 WK (STUDY DURATION: 52 WK), Strain/Sex: F344/FEMALE, Target Tissue: Type of Lesion: MAMMARY GLAND: FIBROADENOMA, Dose [Carcinogen]: 0.02% IN THE DIET FOR 52 WK, Promoter: NONE USED): 2/20 (10%), 0/20 (0%), 100%, not significant | tumour outcome (control, treated, inhibition, significance) (Carcinogen: 2-AMINO-1-METHYL-6-PHENYL-1H-IMIDAZO[4,5-B]PYRIDINE, 105650-23-5, Dose [Inhibitor]: 0, 0.1% IN DRINKING WATER FOR 52 WK (STUDY DURATION: 52 WK), Strain/Sex: F344/FEMALE, Target Tissue: Type of Lesion: MAMMARY GLAND: ADENOCARCINOMA, Dose [Carcinogen]: 0.02% IN THE DIET FOR 52 WK, Promoter: NONE USED): 8/20 (40%), 2/20 (10%), 75%, p< 0.05 | tumour outcome (control, treated, inhibition, significance) (Carcinogen: 2-AMINO-1-METHYL-6-PHENYLIMIDAZO[4,5-B]PYRIDINE [105650-23-5], Dose [Inhibitor]: 0.1% IN DRINKING WATER FOR 54 WK (STUDY DURATION: 54 WK), Strain/Sex: F344/DUCRJ/FEMALE, Target Tissue: Type of Lesion: COLON: ADENOMA OR ADENOCARCINOMA, Dose [Carcinogen]: 0.02% IN DIET FOR 54 WK (STUDY DURATION: 54 WK), Promoter: NONE): 3/20 (15%), 15/20 (75%), -400%, p<0.01
